ChEMBL document CHEMBL1201862, “PubChem BioAssay data set” (2004)
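1) Cells in 96-well plates. 2) Compound, 48 h, 5 concentrations. 3) Linear interpolation between surrounding doses. 4) Unreached endpoint = highest concentration. Abbreviation: GI50, concentration required for 50% inhibition of growth.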 The source made the active and inactive calls. No stated cut-off is given here; in the data, active = GI50 up to about 1.1 µM and inactive = higher.

Columns and labels:
Assay in all cases: DTP human tumour cell line panel, 48 h
NCI-H460 = tested on: NCI-H460
SW-620 = tested on: SW-620
Malme-3M = tested on: Malme-3M
SNB-75 = tested on: SNB-75
SNB-78 = tested on: SNB-78
EKVX = tested on: EKVX
TK-10 = tested on: TK-10
M14 = tested on: M14
NCI-H226 = tested on: NCI-H226
CCRF-CEM = tested on: CCRF-CEM
HCC 2998 = tested on: HCC 2998
UACC-257 = tested on: UACC-257
A498 = tested on: A498
OVCAR-3 = tested on: OVCAR-3
SK-MEL-2 = tested on: SK-MEL-2
XF498 = tested on: XF498
SK-OV-3 = tested on: SK-OV-3
OVCAR-4 = tested on: OVCAR-4
HOP-18 = tested on: HOP-18
RXF 393 = tested on: RXF 393
NCI-H522 = tested on: NCI-H522
SNB-19 = tested on: SNB-19
A549 = tested on: A549
KM-20L2 = tested on: KM-20L2
LOX IMVI = tested on: LOX IMVI
COLO 205 = tested on: COLO 205
UACC-62 = tested on: UACC-62
786-0 = tested on: 786-0
HCT-15 = tested on: HCT-15
SK-MEL-28 = tested on: SK-MEL-28
HT-29 = tested on: HT-29
DMS-114 = tested on: DMS-114
UO-31 = tested on: UO-31
HL-60 = tested on: HL-60
HOP-62 = tested on: HOP-62
KM12 = tested on: KM12
DLD-1 = tested on: DLD-1
ACHN = tested on: ACHN
U-251 = tested on: U-251
OVCAR-8 = tested on: OVCAR-8
SF-539 = tested on: SF-539
SK-MEL-5 = tested on: SK-MEL-5
HOP-92 = tested on: HOP-92
SN12C = tested on: SN12C
SF-295 = tested on: SF-295
LXFL 529 = tested on: LXFL 529
HCT-116 = tested on: HCT-116
NCI-H23 = tested on: NCI-H23
M19-MEL = tested on: M19-MEL
IGROV-1 = tested on: IGROV-1
SF-268 = tested on: SF-268
OVCAR-5 = tested on: OVCAR-5
CAKI-1 = tested on: CAKI-1
DMS-273 = tested on: DMS-273
MCF7 = tested on: MCF7
K562 = tested on: K562
RPMI-8226 = tested on: RPMI-8226
MOLT-4 = tested on: MOLT-4
NCI/ADR-RES = tested on: NCI/ADR-RES
SR = tested on: SR

Measured: GI50

CCCCCCCCCCCCCCNCC(OCC)OCC
8.47 µM: HCT-15
inactive: NCI-H460 17.1 µM | SW-620 15.3 µM | Malme-3M 17.1 µM | SNB-75 10.4 µM | SNB-78 16.8 µM | EKVX 17.7 µM | TK-10 17.4 µM | M14 14.1 µM | NCI-H226 18.4 µM | CCRF-CEM 4.84 µM | HCC 2998 13.4 µM | UACC-257 16.7 µM | A498 14.4 µM | OVCAR-3 18.3 µM | SK-MEL-2 14.5 µM | XF498 13.6 µM | SK-OV-3 18.6 µM | OVCAR-4 13.6 µM | HOP-18 16.6 µM | RXF 393 10.2 µM | NCI-H522 3.66 µM | SNB-19 16.5 µM | A549 19.4 µM | KM-20L2 10.9 µM | LOX IMVI 16.3 µM | COLO 205 14.4 µM | UACC-62 18.1 µM | 786-0 16.9 µM | SK-MEL-28 16.9 µM | HT-29 2.86 µM | DMS-114 12.1 µM | UO-31 10.7 µM | HL-60 2.85 µM | HOP-62 16.5 µM | KM12 10.3 µM | DLD-1 13.7 µM | ACHN 12.6 µM | U-251 15.1 µM | OVCAR-8 18.5 µM | SF-539 16.1 µM | SK-MEL-5 13.9 µM | HOP-92 11.5 µM | SN12C 13.7 µM | SF-295 16.7 µM | LXFL 529 15.1 µM | HCT-116 11.1 µM | NCI-H23 16.1 µM | M19-MEL 16.2 µM | IGROV-1 15.2 µM | SF-268 17.3 µM | OVCAR-5 15.3 µM

CC(=O)OC1CCC2(C)C3CCC4(C)C(c5ccc(=O)oc5)CC5OC54C3CCC2(O)C1 (stereo unspecified)
active: NCI-H460 0.579 µM | Malme-3M 0.895 µM | SNB-75 1.06 µM | CAKI-1 0.738 µM | DMS-273 0.798 µM | EKVX 0.887 µM | K562 0.979 µM | CCRF-CEM 0.631 µM | OVCAR-3 0.59 µM | RPMI-8226 0.869 µM | HOP-18 0.461 µM | RXF 393 0.479 µM | NCI-H522 0.53 µM | A549 0.495 µM | MOLT-4 0.348 µM | DMS-114 0.109 µM | HL-60 0.522 µM | HOP-62 0.811 µM | DLD-1 0.521 µM | SF-539 0.75 µM | NCI/ADR-RES 1.08 µM | SK-MEL-5 0.714 µM | SN12C 0.617 µM | HCT-116 0.706 µM | NCI-H23 0.649 µM | SF-268 0.621 µM
inactive: SW-620 1.21 µM | SNB-78 1.14 µM | NCI-H226 4.72 µM | MCF7 2.31 µM | HCC 2998 2.98 µM | UACC-257 3.04 µM | A498 1.55 µM | SK-MEL-2 4.86 µM | XF498 2.92 µM | SK-OV-3 4.49 µM | OVCAR-4 2.3 µM | SNB-19 5.18 µM | KM-20L2 2.15 µM | LOX IMVI 1.63 µM | COLO 205 4.28 µM | UACC-62 2.69 µM | SK-MEL-28 4.27 µM | HT-29 2.19 µM | UO-31 2.49 µM | KM12 3.21 µM | U-251 2.21 µM | OVCAR-8 1.15 µM | HOP-92 2.45 µM | SF-295 1.15 µM | M19-MEL 2.21 µM | IGROV-1 2.61 µM | OVCAR-5 5.81 µM
1.9 µM: HCT-15

CC1=C(C(=O)CC(=O)C(=O)Nc2ccc(C)c(C)c2)Sc2ccccc2N1
inactive: NCI-H460 > 100 µM | SW-620 > 100 µM | Malme-3M > 100 µM | SNB-75 > 100 µM | CAKI-1 > 100 µM | SNB-78 > 100 µM | DMS-273 > 100 µM | EKVX > 100 µM | TK-10 > 100 µM | M14 > 100 µM | NCI-H226 > 100 µM | HCC 2998 > 100 µM | UACC-257 > 100 µM | A498 > 100 µM | OVCAR-3 > 100 µM | RPMI-8226 > 100 µM | XF498 > 100 µM | SK-OV-3 > 100 µM | OVCAR-4 > 100 µM | HOP-18 > 100 µM | RXF 393 > 100 µM | NCI-H522 > 100 µM | SNB-19 > 100 µM | A549 > 100 µM | KM-20L2 > 100 µM | LOX IMVI > 100 µM | COLO 205 > 100 µM | UACC-62 > 100 µM | 786-0 > 100 µM | SK-MEL-28 > 100 µM | HT-29 > 100 µM | DMS-114 > 100 µM | UO-31 > 100 µM | HOP-62 > 100 µM | KM12 > 100 µM | DLD-1 > 100 µM | ACHN > 100 µM | U-251 > 100 µM | OVCAR-8 > 100 µM | SF-539 > 100 µM | SK-MEL-5 > 100 µM | HOP-92 > 100 µM | SN12C > 100 µM | SF-295 > 100 µM | LXFL 529 > 100 µM | HCT-116 > 100 µM | NCI-H23 > 100 µM | M19-MEL > 100 µM | IGROV-1 > 100 µM | SF-268 > 100 µM | OVCAR-5 > 100 µM
> 100 µM: HCT-15

C/C(=N\NC(N)=S)c1ccc(C2CCCCC2)cc1
active: XF498 0.113 µM
inactive: Malme-3M 18.5 µM | CAKI-1 25.6 µM | SNB-78 25.9 µM | EKVX 71.4 µM | TK-10 26 µM | M14 9.59 µM | K562 12.2 µM | HCC 2998 16.4 µM | OVCAR-3 14.6 µM | RPMI-8226 22.2 µM | SK-MEL-2 13.5 µM | SK-OV-3 32 µM | OVCAR-4 14.4 µM | HOP-18 32.1 µM | RXF 393 12.6 µM | SNB-19 40.5 µM | A549 43.4 µM | KM-20L2 14.7 µM | COLO 205 12 µM | UACC-62 14.2 µM | MOLT-4 4.58 µM | 786-0 13.6 µM | SK-MEL-28 16.6 µM | HT-29 10.5 µM | DMS-114 7.03 µM | UO-31 13 µM | HOP-62 37.2 µM | KM12 15.9 µM | U-251 19 µM | OVCAR-8 15 µM | SF-539 19.8 µM | SR 21.4 µM | SF-295 4.56 µM | HCT-116 14.4 µM | NCI-H23 16.9 µM | M19-MEL 27.5 µM | IGROV-1 12 µM | SF-268 > 100 µM | OVCAR-5 11.1 µM

CN1C(=O)C(=CN)C(=O)N(C)C1=O
inactive: NCI-H460 > 100 µM | SW-620 > 100 µM | Malme-3M > 100 µM | SNB-75 > 100 µM | CAKI-1 > 100 µM | SNB-78 > 100 µM | EKVX > 100 µM | TK-10 > 100 µM | M14 > 100 µM | NCI-H226 > 100 µM | K562 > 100 µM | CCRF-CEM > 100 µM | HCC 2998 > 100 µM | UACC-257 > 100 µM | OVCAR-3 > 100 µM | RPMI-8226 > 100 µM | SK-MEL-2 > 100 µM | XF498 > 100 µM | OVCAR-4 > 100 µM | HOP-18 > 100 µM | RXF 393 > 100 µM | NCI-H522 > 100 µM | SNB-19 > 100 µM | A549 > 100 µM | KM-20L2 > 100 µM | LOX IMVI > 100 µM | MOLT-4 > 100 µM | 786-0 > 100 µM | SK-MEL-28 > 100 µM | HT-29 > 100 µM | DMS-114 > 100 µM | UO-31 > 100 µM | HL-60 > 100 µM | KM12 > 100 µM | DLD-1 > 100 µM | ACHN > 100 µM | U-251 > 100 µM | OVCAR-8 > 100 µM | SK-MEL-5 > 100 µM | HOP-92 > 100 µM | SN12C > 100 µM | SR > 100 µM | SF-295 > 100 µM | NCI-H23 > 100 µM | M19-MEL > 100 µM | SF-268 > 100 µM | OVCAR-5 > 100 µM
> 100 µM: HCT-15
